Laboratory results published in patent US7214675B2, “Urea substituted imidazoquinoline ethers” (3M Innovative Properties Company, priority 2000, dated 2007).

Key:
[1] = test system: tumor necrosis factor (α) induction in human peripheral blood mononuclear cells (PBMC); experiment: Cytokine induction in human cells: tumor necrosis factor (α) secreted by PBMC, ELISA or IGEN assay; format: cell-based; set-up: key to Lowest Effective Concentration (μM) Tumor Necrosis Factor: A “*” indicates that no induction was seen at any of the tested concentrations; generally the highest concentration tested was 10 or 30 μM; conditions: lowest concentration found to induce tumor necrosis factor, incubated 18 to 24 hours at 37° C.
Text: (§1) An in vitro human blood cell system is used to assess cytokine induction. Activity is based on the measurement of interferon and tumor necrosis factor (α) (IFN and TNF, respectively) secreted into culture media as described by Testerman et. al. In “Cytokine Induction by the Immunomodulators Imiquimod and S-27609”, Journal of Leukocyte Biology, 58, 365–372 (September, 1995).
(§2) Whole blood from healthy human donors is collected by venipuncture into EDTA vacutainer tubes. Peripheral blood mononuclear cells (PBMC) are separated from whole blood by density gradient centrifugation using Histopaque®-1077. Blood is diluted 1:1 with Dulbecco's Phosphate Buffered Saline (DPBS) or Hank's Balanced Salts Solution (HBSS). The PBMC layer is collected and washed twice with DPBS or HBSS and resuspended at 4×10^6 cells/mL in RPMI complete. The PBMC suspension is added to 48 well flat bottom sterile tissue culture plates (Costar, Cambridge, Mass. or Becton Dickinson Labware, Lincoln Park, N.J.) containing an equal volume of RPMI complete media containing test compound.
(§3) The compounds are solubilized in dimethyl sulfoxide (DMSO). The DMSO concentration should not exceed a final concentration of 1% for addition to the culture wells. The compounds are generally tested at concentrations ranging from 30–0.014 μM.
(§4) The solution of test compound is added at 60 μM to the first well containing RPMI complete and serial 3 fold dilutions are made in the wells. The PBMC suspension is then added to the wells in an equal volume, bringing the test compound concentrations to the desired range (30–0.014 μM). The final concentration of PBMC suspension is 2×10^6 cells/mL. The plates are covered with sterile plastic lids, mixed gently and then incubated for 18 to 24 hours at 37° C. in a 5% carbon dioxide atmosphere.
(§5) Following incubation the plates are centrifuged for 10 minutes at 1000 rpm (˜200×g) at 4° C. The cell-free culture supernatant is removed with a sterile polypropylene pipet and transferred to sterile polypropylene tubes. Samples are maintained at −30 to −70° C. until analysis. The samples are analyzed for interferon (α) by ELISA and for tumor necrosis factor (α) by ELISA or IGEN Assay
Tumor necrosis factor (α) (TNF) concentration is determined using ELISA kits available from Biosource International, Camarillo, Calif. Alternately, the TNF concentration can be determined by Origen® M-Series Immunoassay and read on an IGEN M-8 analyzer from IGEN International, Gaithersburg, Md. The immunoassay uses a human TNF capture and detection antibody pair from Biosource International, Camarillo, Calif. Results are expressed in pg/mL.
(§6) The table below lists the lowest concentration found to induce interferon and the lowest concentration found to induce tumor necrosis factor for each compound.

[2] = test system: interferon (α) induction in human peripheral blood mononuclear cells (PBMC); experiment: Cytokine induction in human cells: interferon (α) secreted by PBMC, ELISA; format: cell-based; set-up: key to Lowest Effective Concentration (μM) Interferon: A “*” indicates that no induction was seen at any of the tested concentrations; generally the highest concentration tested was 10 or 30 μM; conditions: lowest concentration found to induce interferon, incubated 18 to 24 hours at 37° C.
Text: as §1, §2, §3, §4, §5
Interferon (α) concentration is determined by ELISA using a Human Multi-Species kit from PBL Biomedical Laboratories, New Brunswick, N.J. Results are expressed in pg/mL.
as §6

In the case of `COCCc1nc2c(N)nc3c(c2n1CCOCCNC(=O)Nc1ccccc1)CCCC3` [Example 2, N-(2-{2-[4-amino-2-(2-methoxyethyl)-6,7,8,9-tetrahydro-1H-imidazo[4,5-c]quinolin-1-yl]ethoxy}ethyl)-N′-phenylurea], the melting point is reported as 180 to 182 °C.
With `COCCc1nc2c(N)nc3c(c2n1CCOCCN(C)C(=O)Nc1ccccc1)CCCC3` [Example 4, N-(2-{2-[4-amino-2-(2-methoxyethyl)-6,7,8,9-tetrahydro-1H-imidazo[4,5-c]quinolin-1-yl]ethoxy}ethyl)-N-methyl-N′-phenylurea] the melting point was 167.7 to 170 °C.
`COCCc1nc2c(N)nc3ccccc3c2n1CCOCCN(C)C(=O)N1CCOCC1` [Example 6, N-(2-{2-[4-amino-2-(2-methoxyethyl)-1H-imidazo[4,5-c]quinolin-1-yl]ethoxy}ethyl)-N-methylmorpholine-4-carboxamide] showed a melting point of 121.8 to 122.3 °C.
In the case of `CCCCc1nc2c(N)nc3ccccc3c2n1CCOCCNC(=O)NC(C)C` [Example 7], the minimal effective concentration [1] is reported as 10 µM and the minimal effective concentration [2] is reported as 0.0001 µM.
With `CCCCc1nc2c(N)nc3ccccc3c2n1CCOCCNC(=O)NC(C)(C)C` [Example 8] the minimal effective concentration [1] was 10 µM and the minimal effective concentration [2] was 0.0001 µM.
Work on `CCCCNC(=O)NCCOCCn1c(CCCC)nc2c(N)nc3ccccc3c21` [Example 9] yielded a minimal effective concentration [1] of 1 µM and a minimal effective concentration [2] of 0.0001 µM.
Work on `CCCCc1nc2c(N)nc3ccccc3c2n1CCOCCNC(=O)Nc1ccccc1` [Example 10] yielded a minimal effective concentration [1] of 10 µM and a minimal effective concentration [2] of 0.0001 µM.
Compound `CCCCc1nc2c(N)nc3ccccc3c2n1CCOCCNC(=O)N1CCOCC1` [Example 11] has a minimal effective concentration [1] of 0.1 µM and a minimal effective concentration [2] of 0.0001 µM.
For `CCCCc1nc2c(N)nc3ccccc3c2n1CCOCCNC(=O)NC1CCCCC1` [Example 12], the minimal effective concentration [1] was 1 µM and the minimal effective concentration [2] was 0.0001 µM.
Compound `CCCCc1nc2c(N)nc3ccccc3c2n1CCOCCNC(=O)Nc1cccc(C#N)c1` [Example 13] has a minimal effective concentration [1] of 1 µM and a minimal effective concentration [2] of 0.0001 µM.
With `CCCCc1nc2c(N)nc3ccccc3c2n1CCOCCNC(=O)Nc1cccc(OC)c1` [Example 14] the minimal effective concentration [1] was 10 µM and the minimal effective concentration [2] was 0.0001 µM.
In the case of `CCCCc1nc2c(N)nc3ccccc3c2n1CCOCCNC(=O)N[C@H]1C[C@@H]1c1ccccc1` [Example 15], the minimal effective concentration [1] is reported as 0.1 µM and the minimal effective concentration [2] is reported as 0.0001 µM.
In the case of `CCCCc1nc2c(N)nc3ccccc3c2n1CCOCCNC(=O)Nc1ccc(N(C)C)cc1` [Example 16], the minimal effective concentration [1] is reported as 10 µM and the minimal effective concentration [2] is reported as 0.0001 µM.
In the case of `CCCCc1nc2c(N)nc3ccccc3c2n1CCOCCNC(=O)Nc1cccc(SC)c1` [Example 17], the minimal effective concentration [1] is reported as 10 µM and the “Lowest Effective Concentration (μM) Interferon” value [2] is reported as “*”.
In the case of `CCCCc1nc2c(N)nc3ccccc3c2n1CCOCCNC(=O)Nc1ccc(OC)cc1OC` [Example 18], the “Lowest Effective Concentration (μM) Tumor Necrosis Factor” value [1] is reported as “*” and the minimal effective concentration [2] is reported as 1 µM.
For `CCCCc1nc2c(N)nc3ccccc3c2n1CCOCCNC(=O)NS(=O)(=O)c1ccccc1` [Example 19], the minimal effective concentration [1] was 10 µM and the minimal effective concentration [2] was 0.1 µM.
Work on `CCCCc1nc2c(N)nc3ccccc3c2n1CCOCCNC(=O)NS(=O)(=O)c1ccc(C)cc1` [Example 20] yielded a minimal effective concentration [1] of 10 µM and a minimal effective concentration [2] of 0.01 µM.
`CCCCc1nc2c(N)nc3ccccc3c2n1CCOCCNC(=O)NS(=O)(=O)c1ccc(Cl)cc1` [Example 21] gave a minimal effective concentration [1] of 10 µM and a minimal effective concentration [2] of 1 µM.
`CCC(COCCC1CCN(C(=O)NC(C)C)CC1)n1cnc2c(N)nc3ccccc3c21` (centres unmarked) [Example 22] showed a minimal effective concentration [1] of 1 µM and a minimal effective concentration [2] of 0.1 µM.
Work on `CCCCNC(=O)N1CCC(CCOCC(CC)n2cnc3c(N)nc4ccccc4c32)CC1` (centres unmarked) [Example 23] yielded a minimal effective concentration [1] of 1 µM and a minimal effective concentration [2] of 1 µM.
Compound `CCC(COCCC1CCN(C(=O)Nc2ccccc2)CC1)n1cnc2c(N)nc3ccccc3c21` (centres unmarked) [Example 24] has a minimal effective concentration [1] of 1 µM and a minimal effective concentration [2] of 0.1 µM.
With `CCC(COCCC1CCN(C(=O)N2CCOCC2)CC1)n1cnc2c(N)nc3ccccc3c21` (centres unmarked) [Example 25] the minimal effective concentration [1] was 1 µM and the minimal effective concentration [2] was 0.1 µM.
`CCC(COCCC1CCN(C(=O)NC2CCCCC2)CC1)n1cnc2c(N)nc3ccccc3c21` (centres unmarked) [Example 26] gave a minimal effective concentration [1] of 1 µM and a minimal effective concentration [2] of 0.1 µM.
With `CCC(COCCC1CCN(C(=O)Nc2cccc(C#N)c2)CC1)n1cnc2c(N)nc3ccccc3c21` (centres unmarked) [Example 27] the minimal effective concentration [1] was 1 µM and the minimal effective concentration [2] was 0.1 µM.
For `CCC(COCCC1CCN(C(=O)Nc2cccc(OC)c2)CC1)n1cnc2c(N)nc3ccccc3c21` (centres unmarked) [Example 28], the minimal effective concentration [1] was 1 µM and the minimal effective concentration [2] was 0.1 µM.
In the case of `CCC(COCCC1CCN(C(=O)N[C@@H]2C[C@H]2c2ccccc2)CC1)n1cnc2c(N)nc3ccccc3c21` (some centres unmarked) [Example 29], the minimal effective concentration [1] is reported as 1 µM and the minimal effective concentration [2] is reported as 0.1 µM.
For `CCC(COCCC1CCN(C(=O)Nc2cccc(C(C)=O)c2)CC1)n1cnc2c(N)nc3ccccc3c21` (centres unmarked) [Example 30], the minimal effective concentration [1] was 1 µM and the minimal effective concentration [2] was 1 µM.
In the case of `CCC(COCCC1CCN(C(=O)Nc2cccc(SC)c2)CC1)n1cnc2c(N)nc3ccccc3c21` (centres unmarked) [Example 31], the minimal effective concentration [1] is reported as 10 µM and the minimal effective concentration [2] is reported as 1 µM.
In the case of `CCC(COCCC1CCN(C(=O)Nc2ccc(OC)cc2OC)CC1)n1cnc2c(N)nc3ccccc3c21` (centres unmarked) [Example 32], the minimal effective concentration [1] is reported as 1 µM and the minimal effective concentration [2] is reported as 0.1 µM.
Compound `CCC(COCCC1CCN(C(=O)NS(=O)(=O)c2ccc(C)cc2)CC1)n1cnc2c(N)nc3ccccc3c21` (centres unmarked) [Example 33] has a minimal effective concentration [1] of 10 µM and a minimal effective concentration [2] of 1 µM.
`CCC(COCCC1CCN(C(=O)NS(=O)(=O)c2ccc(Cl)cc2)CC1)n1cnc2c(N)nc3ccccc3c21` (centres unmarked) [Example 34] showed a minimal effective concentration [1] of 10 µM and a minimal effective concentration [2] of 1 µM.
Compound `CCC(COCCC1CCN(C(=S)NC(=O)c2ccco2)CC1)n1cnc2c(N)nc3ccccc3c21` (centres unmarked) [Example 35] has a minimal effective concentration [1] of 1 µM and a minimal effective concentration [2] of 1 µM.
For `CCC(COCCC1CCN(C(=S)Nc2ccccc2)CC1)n1cnc2c(N)nc3ccccc3c21` (centres unmarked) [Example 36], the “Lowest Effective Concentration (μM) Tumor Necrosis Factor” value [1] was “*” and the minimal effective concentration [2] was 0.1 µM.
Compound `CC(C)(C)NC(=O)NCCOCCn1cnc2c(N)nc3ccccc3c21` [Example 37] has a minimal effective concentration [1] of 10 µM and a minimal effective concentration [2] of 10 µM.
Compound `Nc1nc2ccccc2c2c1ncn2CCOCCNC(=O)Nc1ccccc1` [Example 38] has a minimal effective concentration [1] of 10 µM and a minimal effective concentration [2] of 10 µM.
`Nc1nc2ccccc2c2c1ncn2CCOCCNC(=O)NC1CCCCC1` [Example 39] gave a minimal effective concentration [1] of 10 µM and a minimal effective concentration [2] of 10 µM.
`N#Cc1cccc(NC(=O)NCCOCCn2cnc3c(N)nc4ccccc4c32)c1` [Example 40] showed a minimal effective concentration [1] of 10 µM and a minimal effective concentration [2] of 10 µM.
With `COc1cccc(NC(=O)NCCOCCn2cnc3c(N)nc4ccccc4c32)c1` [Example 41] the minimal effective concentration [1] was 10 µM and the minimal effective concentration [2] was 10 µM.
With `Nc1nc2ccccc2c2c1ncn2CCOCCNC(=O)N[C@@H]1C[C@H]1c1ccccc1` [Example 42] the “Lowest Effective Concentration (μM) Tumor Necrosis Factor” value [1] was “*” and the minimal effective concentration [2] was 10 µM.
Work on `COc1ccc(NC(=O)NCCOCCn2cnc3c(N)nc4ccccc4c32)c(OC)c1` [Example 43] yielded a minimal effective concentration [1] of 10 µM and a minimal effective concentration [2] of 10 µM.
With `Nc1nc2ccccc2c2c1ncn2CCOCCNC(=O)NS(=O)(=O)c1ccccc1` [Example 44] the “Lowest Effective Concentration (μM) Tumor Necrosis Factor” value [1] was “*” and the “Lowest Effective Concentration (μM) Interferon” value [2] was “*”.
Work on `Cc1nc2c(N)nc3ccccc3c2n1CCOCCNC(=O)Nc1ccccc1` [Example 48, N-{2-[2-(4-amino-2-methyl-1H-imidazo[4,5-c]quinolin-1-yl)ethoxy]ethyl}-N′-phenylurea] yielded a melting point of 193 to 195 °C.
